In the CheMixHub viscosity set:
± gives the uncertainty stated by the source.

Test: xn = mol fraction of the nth substance listed

[Br-].[Na+] + O
viscosity [mPa·s]
Details	100 kPa	101.3 kPa
293.15 K, x1 = 0.0009	–	1.005 ± 0.022
293.15 K, x1 = 0.0018	–	1.007 ± 0.022
293.15 K, x1 = 0.00893	–	1.027 ± 0.022
293.15 K, x1 = 0.0177	–	1.055 ± 0.023
293.15 K, x1 = 0.03478	–	1.131 ± 0.024
293.15 K, x1 = 0.05127	–	1.235 ± 0.026
293.15 K, x1 = 0.06722	–	1.368 ± 0.029
293.15 K, x1 = 0.09755	–	1.746 ± 0.037
293.15 K, x1 = 0.126	–	2.317 ± 0.05
298.15 K, x1 = 0.00088	0.8936 ± 0.015	–
298.15 K, x1 = 0.0009	–	0.8935 ± 0.019
298.15 K, x1 = 0.0018	–	0.8956 ± 0.019
298.15 K, x1 = 0.00351	0.895 ± 0.038	–
298.15 K, x1 = 0.00368	0.9007 ± 0.015	–
298.15 K, x1 = 0.00829	0.9176 ± 0.016	–
298.15 K, x1 = 0.00879	0.9099 ± 0.039	–
298.15 K, x1 = 0.00893	–	0.9162 ± 0.019
298.15 K, x1 = 0.0101	0.9211 ± 0.016	–
298.15 K, x1 = 0.0146	0.9363 ± 0.016	–
298.15 K, x1 = 0.0177	0.9479 ± 0.04	0.9443 ± 0.02
298.15 K, x1 = 0.01952	0.9523 ± 0.016	–
298.15 K, x1 = 0.02624	0.9808 ± 0.017	–
298.15 K, x1 = 0.03478	–	1.016 ± 0.022
298.15 K, x1 = 0.03489	1.022 ± 0.017	–
298.15 K, x1 = 0.04115	1.054 ± 0.018	–
298.15 K, x1 = 0.05064	1.112 ± 0.019	–
298.15 K, x1 = 0.05127	–	1.111 ± 0.024
298.15 K, x1 = 0.05382	1.186 ± 0.051	–
298.15 K, x1 = 0.06722	–	1.231 ± 0.026
298.15 K, x1 = 0.08817	1.474 ± 0.063	–
298.15 K, x1 = 0.09755	–	1.563 ± 0.033
298.15 K, x1 = 0.126	–	2.052 ± 0.044
303.15 K, x1 = 0.0009	–	0.8006 ± 0.017
303.15 K, x1 = 0.0018	–	0.803 ± 0.017
303.15 K, x1 = 0.00893	–	0.824 ± 0.017
303.15 K, x1 = 0.0177	–	0.8517 ± 0.018
303.15 K, x1 = 0.03478	–	0.9187 ± 0.019
303.15 K, x1 = 0.05127	–	1.006 ± 0.021
303.15 K, x1 = 0.06722	–	1.114 ± 0.024
303.15 K, x1 = 0.09755	–	1.407 ± 0.03
303.15 K, x1 = 0.126	–	1.833 ± 0.039
303.74 K, x1 = 0.03489	0.9102 ± 0.015	–
303.75 K, x1 = 0.05064	0.9936 ± 0.017	–
303.86 K, x1 = 0.04115	0.9393 ± 0.016	–
306.42 K, x1 = 0.00829	0.7716 ± 0.013	–
308.15 K, x1 = 0.0009	–	0.7225 ± 0.015
308.15 K, x1 = 0.0018	–	0.7249 ± 0.015
308.15 K, x1 = 0.00893	–	0.7458 ± 0.016
308.15 K, x1 = 0.0177	–	0.7722 ± 0.016
308.15 K, x1 = 0.03478	–	0.8359 ± 0.018
308.15 K, x1 = 0.05127	–	0.9163 ± 0.019
308.15 K, x1 = 0.06722	–	1.014 ± 0.022
308.15 K, x1 = 0.09755	–	1.277 ± 0.027
308.15 K, x1 = 0.126	–	1.649 ± 0.035
308.44 K, x1 = 0.01952	0.7804 ± 0.013	–
308.74 K, x1 = 0.00088	0.7144 ± 0.012	–
308.75 K, x1 = 0.02624	0.7947 ± 0.014	–
308.94 K, x1 = 0.0146	0.7534 ± 0.013	–
309.24 K, x1 = 0.0101	0.7342 ± 0.013	–
310.75 K, x1 = 0.05064	0.8742 ± 0.015	–
311.42 K, x1 = 0.04115	0.8205 ± 0.014	–
311.74 K, x1 = 0.00368	0.6805 ± 0.012	–
313.15 K, x1 = 0.0009	–	0.6562 ± 0.014
313.15 K, x1 = 0.0018	–	0.6587 ± 0.014
313.15 K, x1 = 0.00893	–	0.679 ± 0.014
313.15 K, x1 = 0.0177	–	0.7046 ± 0.015
313.15 K, x1 = 0.03478	–	0.7648 ± 0.016
313.15 K, x1 = 0.05127	–	0.8392 ± 0.018
313.15 K, x1 = 0.06722	–	0.929 ± 0.02
313.15 K, x1 = 0.09755	–	1.165 ± 0.025
313.15 K, x1 = 0.126	–	1.494 ± 0.032
318.15 K, x1 = 0.0009	–	0.5992 ± 0.013
318.15 K, x1 = 0.0018	–	0.6017 ± 0.013
318.15 K, x1 = 0.00893	–	0.6213 ± 0.013
318.15 K, x1 = 0.0177	–	0.646 ± 0.014
318.15 K, x1 = 0.03478	–	0.7032 ± 0.015
318.15 K, x1 = 0.05127	–	0.7724 ± 0.016
318.15 K, x1 = 0.06722	–	0.855 ± 0.018
318.15 K, x1 = 0.09755	–	1.069 ± 0.023
318.15 K, x1 = 0.126	–	1.363 ± 0.029
323.02 K, x1 = 0.00088	0.5507 ± 0.0095	–
323.15 K, x1 = 0.0009	–	0.5496 ± 0.012
323.15 K, x1 = 0.0018	–	0.5519 ± 0.012
323.15 K, x1 = 0.00351	0.5505 ± 0.024	–
323.15 K, x1 = 0.00879	0.5603 ± 0.024	–
323.15 K, x1 = 0.00893	–	0.5708 ± 0.012
323.15 K, x1 = 0.0177	0.5834 ± 0.025	0.5948 ± 0.013
323.15 K, x1 = 0.03478	–	0.6489 ± 0.014
323.15 K, x1 = 0.05127	–	0.7136 ± 0.015
323.15 K, x1 = 0.05382	0.7427 ± 0.032	–
323.15 K, x1 = 0.06722	–	0.7896 ± 0.017
323.15 K, x1 = 0.08817	0.9292 ± 0.04	–
323.15 K, x1 = 0.09755	–	0.9845 ± 0.021
323.15 K, x1 = 0.126	–	1.248 ± 0.026
